Experimental data published in patent US9301970B2, “Methods and compositions for treating trauma-hemorrhage using estrogen and derivatives thereof” (The UAB Research Foundation, priority 2006, dated 2016).

Legend:
Adult male CD1 mice = assay: Spinal cord injury (SCI): light microscopy, histological score, Luxol fast blue; assay type: in vivo, mouse
Procedure: (§1) Mice were anaesthetized using chloral hydrate (400 mg/kg body weight) (Genovese 2006). A longitudinal incision was made on the midline of the back, exposing the paravertebral muscles. These muscles were dissected away exposing T5-T8 vertebrae. The spinal cord was exposed via a four-level T6-T7 laminectomy and SCI was produced by extradural compression using an aneurysm clip with a closing force of 24 g. Following surgery, 1 ml of saline was administered subcutaneously in order to replace the blood volume lost during surgery. During the surgery and recovery from anesthesia, the mice were placed on a warm heating pad and covered with a warm towel. The mice were singly housed in a temperature-controlled room at 27° C. and survival was measured over a period of 10 days. […]
The segments of each spinal cord were evaluated by an experienced histopathologist (RO). Damaged neurons were counted and the histopathologic changes of the gray matter were scored on a 6-point scale (Sirin 2000): 0, no lesion observed, 1, gray matter contained 1 to 5 eosinophilic neurons; 2, gray matter contained 5 to 10 eosinophilic neurons; 3, gray matter contained more than 10 eosinophilic neurons; 4, small infarction (less than one third of the gray matter area); 5, moderate infarction; (one third to one half of the gray matter area); 6, large infarction (more than half of the gray matter area). […]

[1] = tested on: Myeloperoxidase (MPO) activity; assay: SCI: myeloperoxidase activity (neutrophil infiltration); assay type: in vivo, mouse; conditions: SCI mice, 24 hours; dosing as E50; ICI 182,780 = co-administration with 17β-estradiol
Procedure: Mice were anaesthetized using chloral hydrate (400 mg/kg body weight) (Genovese 2006). A longitudinal incision was made on the midline of the back, exposing the paravertebral muscles. These muscles were dissected away exposing T5-T8 vertebrae. The spinal cord was exposed via a four-level T6-T7 laminectomy and SCI was produced by extradural compression using an aneurysm clip with a closing force of 24 g. Following surgery, 1 ml of saline was administered subcutaneously in order to replace the blood volume lost during surgery. During the surgery and recovery from anesthesia, the mice were placed on a warm heating pad and covered with a warm towel. The mice were singly housed in a temperature-controlled room at 27° C. and survival was measured over a period of 10 days. Food and water were provided to the mice ad libitum. During this time period, the animals' bladders were manually voided twice a day until the mice were able to regain normal bladder function. In all injured groups, the spinal cord was compressed for 1 min. […] Myeloperoxidase (MPO) activity, an indicator of PMN accumulation, was determined as previously described (Mullane 1985) 24 h after SCI. […] The rate of change in absorbance was measured spectrophotometrically at 650 nm. MPO activity was defined as the quantity of enzyme degrading 1 μmol of peroxide per minute at 37° C. and was expressed in milliunits/g of wet tissue.

Bax and Bcl-2 = assay: SCI: Western blot analysis for Bax and Bcl-2; assay type: in vivo, mouse; conditions: spinal cord, 24 hours after SCI; ICI 182,780 = co-administration with 17β-estradiol
Procedure: as §1, with “days. Food and water were provided to the mice ad libitum.” for “days.”
For Western blot analysis, 70 μg protein of lysates were mixed with gel loading buffer (50 mM Tris, 10% (w/v), sodium dodecyl sulphate (SDS), 10% (w/v) glycerol, 10% (v/v) 2- mercaptoethanol, 2 mg/ml bromophenol), boiled for 5 min, and subjected to SDSPAGE (12% polyacrylamide). […] The protein bands of Bax (23˜kDa), or Bcl -2 (26˜kDa) on x-ray film were scanned and densitometrically analyzed with a model GS-700 imaging densitometer (Bio-Rad Laboratories). […]

[2] = tested on: TNF-α, IL-1β, IL-6, MCP-1; assay: SCI: quantitative real time PCR of cytokines and chemokines in spinal cord; conditions: SCI mice, 24 h; dosing as E50; ICI 182,780 = co-administration with 17β-estradiol
Procedure: A longitudinal incision was made on the midline of the back, exposing the paravertebral muscles. These muscles were dissected away exposing T5-T8 vertebrae. […] Following surgery, 1 ml of saline was administered subcutaneously in order to replace the blood volume lost during surgery. During the surgery and recovery from anesthesia, the mice were placed on a warm heating pad and covered with a warm towel. The mice were singly housed in a temperature-controlled room at 27° C. and survival was measured over a period of 10 days. Food and water were provided to the mice ad libitum. During this time period, the animals' bladders were manually voided twice a day until the mice were able to regain normal bladder function. In all injured groups, the spinal cord was compressed for 1 min. Sham-injured animals were only subjected to laminectomy.
(§2) At different time points (see FIG. 30), the mice (n=10 from each group for each of the 3 time points) were sacrificed in order to evaluate the various parameters as described below.
Total cellular RNA was isolated from the aqueous phase then the levels of IL-α, TNF-α, MCP-1, IL-6 gene products were determined by Real Time PCR. The amount of each PCR product of gene target was normalized to Glyceraldehyde-3-phosphate dehydrogenase (GAPDH). The RNA extracted from spinal cord of individual mice was reverse trascripted into first strand cDNA with Random Hexamers and purified Avian Myeloblastosis Virus Reverse Transcriptase (Takara, Japan) in 20 ml of reaction after a DNAse treatment and stored at −80° C. until use. Primers pair for each cytokine was designed using the software Oligo (Molecular Biology Insights, Cascade, Colo., USA). The PCR reactions were performed using the following cycle conditions: a denaturation step for 15 minutes at 95° C. and 40 cycles of 30 seconds denaturation at 94° C., 30 seconds annealing (TNF-á 61° C., IL-6 54° C., IL-1β 61° C., MCP-1 54° C., GADPH 56° C.), 15 sec at 72° C. and 7 minutes of final extension at 72° C. The PCR products were visualized by electrophoresis on agarose gel 2% stained by ethidium bromide. The purified PCR products were cloned into a plasmid vector, transformed into the E. coli TOP 10 (Invitrogen) and purified with Turbo Kit (QBIOgene, Calif., USA). The recombinant plasmid was linearized upstream the target sequence using the restriction endonuclease PmeI (Fermentas, Canada). Tenfold dilutions of recombinant plasmid from 10^9 copies down to 10^1 copies were used as standards. The real time PCR assay was developed and evaluated on the Rotor-Gene 3000 system (Corbett Research, Australia). […] The signal was acquired on the FAM channel (multichannel machine) (source, 470 nm; detector, 510 nm; gain set to 5) with the fluorescence reading taken at the end of each 72° C. step. […]

[3] = tested on: Nitrotyrosine, iNOS, MPO, COX-2, Bax and Bcl-2; assay: SCI: immunohistochemical localization of nitrotyrosine, iNOS, MPO, COX-2, Bax and Bcl-2; conditions: ICI 182,780 = co-administration with 17β-estradiol
Procedure: A longitudinal incision was made on the midline of the back, exposing the paravertebral muscles. These muscles were dissected away exposing T5-T8 vertebrae. […] Following surgery, 1 ml of saline was administered subcutaneously in order to replace the blood volume lost during surgery. During the surgery and recovery from anesthesia, the mice were placed on a warm heating pad and covered with a warm towel. […] Food and water were provided to the mice ad libitum. During this time period, the animals' bladders were manually voided twice a day until the mice were able to regain normal bladder function. In all injured groups, the spinal cord was compressed for 1 min. Sham-injured animals were only subjected to laminectomy.
as §2
At 24 h after SCI, the tissues were fixed in 10% (w/v) PBS-buffered formaldehyde and 8-μm sections were prepared from paraffin embedded tissues. After deparaffinization, endogenous peroxidase was quenched with 0.3% (v/v) hydrogen peroxide in 60% (v/v) methanol for 30 min. The sections were permeabilized with 0.1% (w/v) Triton X-100 in PBS for 20 min. Non-specific adsorption was minimized by incubating the section in 2% (v/v) normal goat serum in PBS for 20 min. Endogenous biotin or avidin binding sites were blocked by sequential incubation for 15 min with biotin and avidin (DBA), respectively. Sections were incubated overnight with antinitrotyrosine rabbit polyclonal antibody (Upstate; 1:500 in PBS, v/v), with anti-iNOS polyclonal antibody rat (1:500 in PBS, v/v), anti-COX-2 monoclonal antibody (1:500 in PBS, v/v), anti-Bax rabbit polyclonal antibody (Santa Cruz Biotechnology, Inc., Santa Cruz, Calif.; 1:500 in PBS, v/v), or with anti-Bcl-2 polyclonal antibody rat (Santa Cruz Biotechnology, Inc., Santa Cruz, Calif.; 1:500 in PBS, v/v), or with anti-MPO polyclonal antibody (Santa Cruz Biotechnology, Inc., Santa Cruz, Calif.; 1:500 in PBS, v/v). Sections were washed with PBS, and incubated with secondary antibody. Specific labeling was detected with a biotin-conjugated goat anti-rabbit IgG and avidin-biotin peroxidase complex (DBA) and counterstained whith nuclear fast red. To verify the binding specificity for nitrotyrosine, iNOS, COX-2, Bax, and Bcl-2, some sections were also incubated with only the primary antibody (no secondary) or with only the secondary antibody (no primary).

[4] = SCI mice, 24 hours, dosing as E50
[5] = spinal cord, 24 hours after SCI

C[C@]12CC[C@@H]3c4ccc(O)cc4C[C@@H](CCCCCCCCC[S+]([O-])CCCC(F)(F)C(F)(F)F)[C@H]3[C@@H]1CC[C@@H]2O (stereo partly drawn) [ICI 182,780]
histological alteration of spinal cord (H&E, histological score) (Adult male CD1 mice; 24 hours after injury, 17β-estradiol 300 μg/kg s.c. 1 h before, 3 h and 6 h after SCI, ICI 182,780 rows: 500 μg/kg s.c. 1 hour before 17β-estradiol (co-administration)): significantly blocked the effect of the 17β-estradiol on the histological alteration | myelin structure (Luxol fast blue staining) (Adult male CD1 mice; 24 hours, dosing as E50, ICI 182,780 = co-administration with 17β-estradiol): significantly blocked the effect of the 17β-estradiol | MPO activity in the spinal cord (neutrophil infiltration) [1]: significantly blocked the effect of the 17β-estradiol on the neutrophils infiltration | Bax expression (Western blot) (Bax and Bcl-2): significantly blocked the effect of the 17β-estradiol on Bax expression | Bcl-2 expression (Western blot) (Bax and Bcl-2): significantly blocked the effect of the 17β-estradiol on the Bcl2 expression | tissue levels of IL-1β (mRNA) [2]: significantly blocked the effect of the 17β-estradiol | tissue levels of IL-6 (mRNA) [2]: significantly blocked the effect of the 17β-estradiol | tissue levels of MCP-1 (mRNA) [2]: significantly blocked the effect of the 17β-estradiol | tissue levels of TNF-α (mRNA) [2]: significantly blocked the effect of the 17β-estradiol | immunohistological staining for COX-2 [3, 4]: significantly blocked the effect of the 17β-estradiol on COX-2 expression | immunohistological staining for iNOS [3, 4]: significantly blocked the effect of the 17β-estradiol on iNOS expression | immunohistological staining for nitrotyrosine [3, 4]: significantly blocked the effect of the 17β-estradiol | staining for MPO [3, 4]: significantly blocked the effect of the 17β-estradiol on the MPO | immunohistological staining for Bax [3, 5]: significantly blocked the effect of the 17β-estradiol | immunohistological staining for Bcl-2 [3, 5]: significantly blocked the effect of the 17β-estradiol
